Measurements taken from PMC5537066, “Dimerization facilitates the conformational transitions for bacterial phosphotransferase enzyme I autophosphorylation in an allosteric manner” (FEBS Open Bio, 2017).

How the values were obtained:
Assay in all cases: isothermal titration calorimetry
Assay type in all cases: binding
Conditions in all cases: read-out: K D (μS)
[1] = molecular target: T1, EI (EIA, EIA(G356S)) (Escherichia coli, UniProt P08839, G356S/H189A)
T1 construct: gene ptsI; full length 1-575; pET11 or pET15b with N-terminal His6 tag; E. coli BL21star(DE3); dimer with PEP
Source text: isothermal titration calorimetry on EI (EIA, EIA(G356S))

[2] = molecular target: T2, EIA^ΔEINα (G356S) (Escherichia coli, UniProt P08839, DEL22-145/G356S/H189A)
T2 construct: gene ptsI; EI(1-21, 146-575), EINalpha subdomain deleted; pET11 or pET15b with N-terminal His6 tag; E. coli BL21star(DE3)
Source text: isothermal titration calorimetry on EIA^ΔEINα (G356S)

[3] = molecular target: T3, EIC (EIC(G356S)) (Escherichia coli, UniProt P08839, G356S)
T3 construct: gene ptsI; pET11 or pET15b with N-terminal His6 tag; E. coli BL21star(DE3)

C=C(OP(=O)(O)O)C(=O)O [PEP]
Kd [1]: 14 ± 0.9 µM | Kd [2]: 1.3 ± 0.1 µM | Kd [3]: 310 ± 100 µM
